Measured values taken from patent US20130210034A1, “COMPLEX PHOSPHOPROTEIN ACTIVATION PROFILES” (BECKMAN COULTER, INC., priority 2005, published 2013).
Values joined by “and” are separate entries in the source; they are usually repeats but may differ in a detail not shown here. Identical values can stand only once.

What was measured:
Assay in all cases: Cytokine-stimulated phosphorylation in immunophenotypically defined cell populations from healthy donor BM (flow cytometry);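 for pAKT S/N ratio: Phosphoprotein MFI normalized to lymphocyte MFI as internal negative control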;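 for pERK S/N ratio: Phosphoprotein MFI normalized to lymphocyte MFI as internal negative control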;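 for pS6 S/N ratio: Phosphoprotein MFI normalized to lymphocyte MFI as internal negative control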;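 for pSTAT3 S/N ratio: Phosphoprotein MFI normalized to lymphocyte MFI as internal negative control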
Assay type in all cases: cell-based, human
pAKT = conditions: for pAKT Percent (%) Responding Cells, Mean / pAKT S/N ratio: healthy donor BM, mean ± SD
Experimental: (§1) Bone marrow (BM) samples were collected in 7.5 mL Iscove's modified Dulbecco's medium (IMDM) supplemented with 100U penicillin, 0.01 mg/mL streptomycin, and 70 μg/mL heparin sodium salt from 10 patients undergoing hip replacement surgery, who were otherwise healthy. These patients were from a pool of surgery patients, age 49 to 77, and represented […] patients. […] These BM samples were rinsed twice with IMDM to release cells, filtered using a 100 μm Nylon cell strainer to remove marrow particles, and centrifuged for at RT fro 7 minutes at 200 g. The cell pellet was washed twice with sterile IMDM to remove traces of fat and re-suspended in IMDM to a concentration of 3×10^7 cells/mL.
(§2) To assess the signal transduction response after growth factor simulation, a series comprising two sets of tubes including about 3×10^6 cells/100 μL were incubated at 37° C. for 30 minutes. After this pre-incubation period, tubes with then processes with either a stimulant or inhibitor. […] To examine the effects of protein phosphorylation inhibition, tubes were incubated with an inhibitor cocktail comprising 100 μM/100 μL UO126, 1 μM/100 μL LY294002, and 1 μM/100 μL rapamycin. One unstimulated tube receiving no stimulant or inhibitor was processed to assess basal levels of phospho-protein expression. After stimulation the cells were immediately fixed in 10% formaldehyde solution at 37° C. Pre-labeling with CD13, CD16 and CD64 antibodies was carried out 20 minutes prior to formaldehyde fixation. After fixation, one set of tubes was permeabilized without methanol for pAKT, pERK and pS6 staining and the other for 80% methanol permeabilized for pSTAT3 and pSTAT5 staining. After permeablization, the cells were washed in PBS with 2% BSA and blocked by re-suspended in 75 μL of PBS comprising 25% heat inactivated normal mouse serum, 25% normal rabbit serum. To stain cells with fluorescent conjugated monoclonal antibodies, samples were incubated on ice for 45 minutes in 100 μL of an antibody staining solution including either: 1) CD15-Pacific Orange, CD34-Phycoerythrin-Texas Red, CD117-Phycoerythrin-Cyanin 5.5, CD45-Allophycocyanin-Alexa Fluor 750 (or CD45-Pacific Orange, in which case CD15-Pacific Orange was omitted), pS6-Pacific Blue, pERK-Alexa Fluor 488 and pAKT-Alexa Fluor 647 or 2) CD15-Pacific Orange, CD34-Phycoerythrin-Texas Red, CD117-Phycoerythrin-Cyanin 5.5, CD45-Allophycocyanin-Alexa Fluor 750 or CD45-Pacific Blue, pSTAT3-Alexa Fluor 488 and pSTAT5-Phycoerythrin. The stained cells were washed twice with ice cold PBS containing 2% BSA and centrifuged at 800 g for 6 minutes at 4° C. The supernatant was discarded and cells re-suspended in 250 μL of chilled wash buffer for data acquisition. Stained cells were examined using either GALIOS flow cytometer (Beckman Coulter) or CYAN ADP (Beckman Coulter) equipped with 488 nm, 405 nm and 635 nm lasers to detect the degree of fluorescence. Data were analyzed using FCS Express (De Novo Software, CA) analysis software.
(§3) Specific phosphoprotein expression of pERK, pS6, pAKT, pSTAT5, and pSTAT3 was examined in seven discrete phenotypically defined populations based on 7-color immunophenotyping (FIG. 1). The percent of responding (phosphorprotein positive) cells for each of these populations was determined from individual single parameter histograms based on a fixed integration region set on the inhibitor treated control at about 3% positives.

pERK = conditions: healthy donor BM, mean ± SD
Experimental: as §1, §2, §3

pS6 = conditions: healthy donor BM, mean ± SD
Experimental: as §1, §2, §3

pSTAT3 = conditions: healthy donor BM, mean ± SD
Experimental: as §1, §2, §3

pSTAT5 = conditions: for pSTAT5 Percent (%) Responding Cells, Mean / pSTAT5 S/N ratio: healthy donor BM, mean ± SD
Experimental: as §1, §2, §3

Granulocyte-Macrophage Colony-Stimulating Factor [GM-CSF]
pAKT Percent (%) Responding Cells, Mean (pAKT; CD34^+ (CD34^+/CD117^+ cells)): 22.5 ± 23.4% | pAKT S/N ratio (pAKT; CD34^+ (CD34^+/CD117^+ cells)): 3.2 ± 3.3 | pAKT Percent (%) Responding Cells, Mean (pAKT; CD117^+ (CD34^−/CD117^+ cells)): 13.3 ± 23.7% | pAKT S/N ratio (pAKT; CD117^+ (CD34^−/CD117^+ cells)): 2.2 ± 1.3 | pAKT Percent (%) Responding Cells, Mean (pAKT; G1, immature myeloid cells): 11.2 ± 19.8% | pAKT S/N ratio (pAKT; G1, immature myeloid cells): 3.0 ± 1.6 | pAKT Percent (%) Responding Cells, Mean (pAKT; G2, intermediate myeloid cells): 17.6 ± 26.1% | pAKT S/N ratio (pAKT; G2, intermediate myeloid cells): 3.2 ± 1.6 | pAKT Percent (%) Responding Cells, Mean (pAKT; G3, mature myeloid cells): 17.5 ± 26.0% | pAKT S/N ratio (pAKT; G3, mature myeloid cells): 3.7 ± 1.9 | pAKT Percent (%) Responding Cells, Mean (pAKT; Mono, monocytes): 17.6 ± 27.3% | pAKT S/N ratio (pAKT; Mono, monocytes): 3.6 ± 2.3 | pAKT, Normal Sample (pAKT; Table 7 comparison value): 16.2 | pERK Percent (%) Responding Cells, Mean (pERK; CD34^+ (CD34^+/CD117^+ cells)): 30.1% and 30.1 ± 11.5% | pERK S/N ratio (pERK; CD34^+ (CD34^+/CD117^+ cells)): 10.6 ± 4.4 | pERK S/N ratio (pERK; CD117^+ (CD34^−/CD117^+ cells)): 3.8 ± 0.4 | pERK Percent (%) Responding Cells, Mean (pERK; G1, immature myeloid cells): 53.9% and 53.9 ± 20.8% | pERK S/N ratio (pERK; G1, immature myeloid cells): 6.2 ± 1.8 | pERK Percent (%) Responding Cells, Mean (pERK; G2, intermediate myeloid cells): 91.5 ± 16.0% | pERK S/N ratio (pERK; G2, intermediate myeloid cells): 9.4 ± 2.4 | pERK Percent (%) Responding Cells, Mean (pERK; G3, mature myeloid cells): 91.5% and 90.7 ± 15.0% | pERK S/N ratio (pERK; G3, mature myeloid cells): 11.3 ± 3.1 | pERK Percent (%) Responding Cells, Mean (pERK; Mono, monocytes): 52.0 ± 22.6% | pERK S/N ratio (pERK; Mono, monocytes): 11.4 ± 4.5 | pS6 Percent (%) Responding Cells, Mean (pS6; CD34^+ (CD34^+/CD117^+ cells)): 60.1% and 60.1 ± 14.1% | pS6 S/N ratio (pS6; CD34^+ (CD34^+/CD117^+ cells)): 35.7 ± 31.7 | pS6 Percent (%) Responding Cells, Mean (pS6; CD117^+ (CD34^−/CD117^+ cells)): 38.5 ± 11.5% | pS6 S/N ratio (pS6; CD117^+ (CD34^−/CD117^+ cells)): 52.7 ± 44.0 | pS6 Percent (%) Responding Cells, Mean (pS6; G1, immature myeloid cells): 3.4 ± 1.3% | pS6 S/N ratio (pS6; G1, immature myeloid cells): 5.1 ± 3.2 | pS6 Percent (%) Responding Cells, Mean (pS6; G2, intermediate myeloid cells): 11.3 ± 15.9% | pS6 S/N ratio (pS6; G2, intermediate myeloid cells): 5.7 ± 3.7 | pS6 Percent (%) Responding Cells, Mean (pS6; G3, mature myeloid cells): 8.3 ± 7.0% | pS6 S/N ratio (pS6; G3, mature myeloid cells): 5.7 ± 3.6 | pS6 Percent (%) Responding Cells, Mean (pS6; Mono, monocytes): 76.9 ± 11.8% | pS6 S/N ratio (pS6; Mono, monocytes): 25.8 ± 20.8 | pSTAT3 Percent (%) Responding Cells, Mean (pSTAT3; CD34^+ (CD34^+/CD117^+ cells)): 10.4 ± 7.9% | pSTAT3 S/N ratio (pSTAT3; CD34^+ (CD34^+/CD117^+ cells)): 1.7 ± 0.2 | pSTAT3 Percent (%) Responding Cells, Mean (pSTAT3; CD117^+ (CD34^−/CD117^+ cells)): 7.9 ± 8.7% | pSTAT3 S/N ratio (pSTAT3; CD117^+ (CD34^−/CD117^+ cells)): 2.6 ± 0.8 | pSTAT3 Percent (%) Responding Cells, Mean (pSTAT3; G1, immature myeloid cells): 58.7% and 58.7 ± 39.9% | pSTAT3 S/N ratio (pSTAT3; G1, immature myeloid cells): 6.8 ± 2.5 | pSTAT3 Percent (%) Responding Cells, Mean (pSTAT3; G2, intermediate myeloid cells): 59.1 ± 30.4% | pSTAT3 S/N ratio (pSTAT3; G2, intermediate myeloid cells): 7.3 ± 2.1 | pSTAT3 Percent (%) Responding Cells, Mean (pSTAT3; G3, mature myeloid cells): 76.0 ± 30.8% | pSTAT3 S/N ratio (pSTAT3; G3, mature myeloid cells): 8.8 ± 2.7 | pSTAT3 S/N ratio (pSTAT3; Mono, monocytes): 2.3 ± 0.3 | pSTAT5 Percent (%) Responding Cells, Mean (pSTAT5; CD34^+ (CD34^+/CD117^+ cells)): 74.7% | pSTAT5 S/N ratio (pSTAT5; CD34^+ (CD34^+/CD117^+ cells)): 19.8 ± 9.7 | pSTAT5 Percent (%) Responding Cells, Mean (pSTAT5; CD117^+ (CD34^−/CD117^+ cells)): 58.2 ± 11.8% | pSTAT5 Percent (%) Responding Cells, Mean (pSTAT5; G2, intermediate myeloid cells): 98.8 ± 0.4% | pSTAT5 S/N ratio (pSTAT5; G2, intermediate myeloid cells): 18.3 ± 5.5 | pSTAT5 S/N ratio (pSTAT5; Mono, monocytes): 14.7 ± 4.5 | pSTAT5, Normal Sample (pSTAT5; Table 7 comparison value, matches percent responding CD34^+ cells of Tables 1-5): 74.7 and 75.1
